Results: BindingDB's records for doi:10.1128/AAC.01311-05 (Microbiotix, 2007)

How the values were obtained:
[1] = target: DNA polymerase III subunit alpha (Bacillus subtilis (strain 168), UniProt O34623); test: DNA Polymerase Activity Assay; details: pH 7.5; 30 °C
Experimental: (§1) Reaction velocities were determined at each dGTP concentration and used to create double reciprocal plots of velocity versus dGTP concentration. The plots were used to assess the mechanism of inhibition and calculate the apparent Ki value for the inhibitor.

[2] = target: DNA polymerase III subunit alpha (Escherichia coli (strain K12), UniProt P10443); test: DNA Polymerase Activity Assay; details: pH 7.5; 30 °C
Experimental: as §1

[3] = target: T1, DNA polymerase alpha subunit B (Bos taurus, UniProt Q58D13); test: DNA Polymerase Activity Assay; details: pH 7.5; 37 °C
T1 sequence (Q58D13 whole entry): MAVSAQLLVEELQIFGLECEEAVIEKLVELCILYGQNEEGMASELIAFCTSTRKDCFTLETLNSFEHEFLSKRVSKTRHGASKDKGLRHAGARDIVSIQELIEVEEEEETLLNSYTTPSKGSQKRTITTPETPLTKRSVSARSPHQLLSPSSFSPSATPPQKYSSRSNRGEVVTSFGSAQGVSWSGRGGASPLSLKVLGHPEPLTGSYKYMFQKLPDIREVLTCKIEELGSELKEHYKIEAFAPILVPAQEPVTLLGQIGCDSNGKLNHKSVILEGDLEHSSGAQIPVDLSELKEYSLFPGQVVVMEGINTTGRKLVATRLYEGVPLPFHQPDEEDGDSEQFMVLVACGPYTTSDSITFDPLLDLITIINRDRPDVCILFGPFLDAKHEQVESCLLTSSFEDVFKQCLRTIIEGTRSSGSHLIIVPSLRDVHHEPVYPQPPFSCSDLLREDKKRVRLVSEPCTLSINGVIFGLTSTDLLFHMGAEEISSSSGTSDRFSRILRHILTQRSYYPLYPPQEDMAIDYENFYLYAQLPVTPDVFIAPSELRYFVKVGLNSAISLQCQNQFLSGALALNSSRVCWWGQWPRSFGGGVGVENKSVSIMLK
Experimental: as §1

[4] = target: DNA topoisomerase 4 subunit A [V210L]/B (Bacillus subtilis, UniProt Q45066+Q59192, V210L); test: DNA Topoisomerase IV Assay; details: pH 7.5; 30 °C
DNA gyrase subunit A/B = DNA gyrase subunit A/B (Bacillus subtilis (strain 168), UniProt P05652+P05653); test: DNA Gyrase Activity Assay; details: pH 7.5; 30 °C
Sequence of DNA gyrase subunit A/B (P05653 whole entry): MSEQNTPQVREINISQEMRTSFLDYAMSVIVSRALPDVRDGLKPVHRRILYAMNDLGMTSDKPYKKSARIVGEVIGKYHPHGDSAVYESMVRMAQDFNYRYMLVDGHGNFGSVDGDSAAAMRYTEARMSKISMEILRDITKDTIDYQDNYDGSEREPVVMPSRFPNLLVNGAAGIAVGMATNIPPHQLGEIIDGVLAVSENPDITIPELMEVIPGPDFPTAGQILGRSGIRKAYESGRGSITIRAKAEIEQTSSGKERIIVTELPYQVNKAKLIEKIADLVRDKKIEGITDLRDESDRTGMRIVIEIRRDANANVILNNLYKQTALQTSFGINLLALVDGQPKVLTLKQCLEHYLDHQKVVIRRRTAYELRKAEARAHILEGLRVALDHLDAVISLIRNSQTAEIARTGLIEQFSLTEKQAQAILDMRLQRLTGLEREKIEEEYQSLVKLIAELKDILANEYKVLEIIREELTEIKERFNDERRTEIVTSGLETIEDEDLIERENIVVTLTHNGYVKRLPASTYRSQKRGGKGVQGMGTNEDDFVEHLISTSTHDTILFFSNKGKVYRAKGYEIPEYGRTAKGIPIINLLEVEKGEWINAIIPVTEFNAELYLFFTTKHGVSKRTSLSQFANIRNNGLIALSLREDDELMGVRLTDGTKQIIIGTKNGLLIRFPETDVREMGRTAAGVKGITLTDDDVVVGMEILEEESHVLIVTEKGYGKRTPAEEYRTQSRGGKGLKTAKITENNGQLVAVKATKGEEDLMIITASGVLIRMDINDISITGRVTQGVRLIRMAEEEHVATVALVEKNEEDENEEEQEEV
Sequence of DNA gyrase subunit A/B (P05652 whole entry): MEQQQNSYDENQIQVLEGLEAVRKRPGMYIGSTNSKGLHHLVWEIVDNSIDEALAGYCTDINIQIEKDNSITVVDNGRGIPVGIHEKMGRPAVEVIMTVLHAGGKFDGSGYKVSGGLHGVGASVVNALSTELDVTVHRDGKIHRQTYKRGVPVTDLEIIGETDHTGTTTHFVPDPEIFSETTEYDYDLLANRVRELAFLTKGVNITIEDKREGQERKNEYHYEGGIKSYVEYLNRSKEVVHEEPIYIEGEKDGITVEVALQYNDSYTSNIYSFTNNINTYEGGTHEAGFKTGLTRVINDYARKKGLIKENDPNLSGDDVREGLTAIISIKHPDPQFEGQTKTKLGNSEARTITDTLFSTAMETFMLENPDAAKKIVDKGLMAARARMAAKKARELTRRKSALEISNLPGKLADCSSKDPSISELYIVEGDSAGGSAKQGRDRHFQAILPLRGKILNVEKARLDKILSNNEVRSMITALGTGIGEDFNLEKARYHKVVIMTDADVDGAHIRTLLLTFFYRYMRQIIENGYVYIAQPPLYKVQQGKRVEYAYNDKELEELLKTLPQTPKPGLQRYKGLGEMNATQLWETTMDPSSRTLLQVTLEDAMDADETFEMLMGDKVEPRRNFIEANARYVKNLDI

Sequence of DNA topoisomerase 4 subunit A [V210L]/B (Q45066 whole entry V210L): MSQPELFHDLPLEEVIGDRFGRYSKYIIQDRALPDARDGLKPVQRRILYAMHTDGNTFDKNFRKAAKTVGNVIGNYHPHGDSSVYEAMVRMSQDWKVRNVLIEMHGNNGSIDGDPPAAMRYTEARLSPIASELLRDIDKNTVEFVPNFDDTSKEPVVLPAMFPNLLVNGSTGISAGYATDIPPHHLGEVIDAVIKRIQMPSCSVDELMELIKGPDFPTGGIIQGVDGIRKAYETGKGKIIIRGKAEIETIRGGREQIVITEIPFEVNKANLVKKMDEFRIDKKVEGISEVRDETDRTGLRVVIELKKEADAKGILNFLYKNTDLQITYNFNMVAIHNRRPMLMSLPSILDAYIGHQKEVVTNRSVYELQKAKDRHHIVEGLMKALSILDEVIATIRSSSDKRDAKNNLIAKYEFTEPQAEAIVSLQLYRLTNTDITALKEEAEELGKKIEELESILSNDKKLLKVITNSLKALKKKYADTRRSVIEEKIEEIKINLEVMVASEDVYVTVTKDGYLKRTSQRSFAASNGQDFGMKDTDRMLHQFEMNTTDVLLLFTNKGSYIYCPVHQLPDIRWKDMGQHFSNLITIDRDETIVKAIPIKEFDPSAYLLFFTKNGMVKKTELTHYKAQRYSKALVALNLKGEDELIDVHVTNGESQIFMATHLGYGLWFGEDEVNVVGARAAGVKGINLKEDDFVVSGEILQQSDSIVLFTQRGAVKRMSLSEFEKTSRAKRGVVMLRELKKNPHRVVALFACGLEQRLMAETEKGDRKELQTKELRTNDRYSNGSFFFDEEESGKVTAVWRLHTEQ
Sequence of DNA topoisomerase 4 subunit A [V210L]/B (Q59192 whole entry): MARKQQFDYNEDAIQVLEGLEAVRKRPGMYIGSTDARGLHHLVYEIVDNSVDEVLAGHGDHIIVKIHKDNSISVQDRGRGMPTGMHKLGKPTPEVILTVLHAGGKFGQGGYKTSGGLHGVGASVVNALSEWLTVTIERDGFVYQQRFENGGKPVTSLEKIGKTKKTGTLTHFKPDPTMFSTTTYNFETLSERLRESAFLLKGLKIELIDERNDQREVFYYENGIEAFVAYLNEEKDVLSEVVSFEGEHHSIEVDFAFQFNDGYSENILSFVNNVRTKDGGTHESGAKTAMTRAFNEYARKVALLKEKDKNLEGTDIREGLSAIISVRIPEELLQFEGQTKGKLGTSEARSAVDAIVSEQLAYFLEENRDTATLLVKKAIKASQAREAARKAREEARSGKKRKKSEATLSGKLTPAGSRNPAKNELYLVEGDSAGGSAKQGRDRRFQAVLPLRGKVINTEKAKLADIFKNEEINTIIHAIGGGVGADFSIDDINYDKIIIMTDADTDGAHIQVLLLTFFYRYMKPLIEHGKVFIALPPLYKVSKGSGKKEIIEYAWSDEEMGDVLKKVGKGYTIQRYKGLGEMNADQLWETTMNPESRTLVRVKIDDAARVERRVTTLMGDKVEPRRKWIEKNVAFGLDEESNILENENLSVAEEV
Sequence of DNA polymerase III subunit alpha (Bacillus subtilis (strain 168), UniProt O34623) (O34623 whole entry): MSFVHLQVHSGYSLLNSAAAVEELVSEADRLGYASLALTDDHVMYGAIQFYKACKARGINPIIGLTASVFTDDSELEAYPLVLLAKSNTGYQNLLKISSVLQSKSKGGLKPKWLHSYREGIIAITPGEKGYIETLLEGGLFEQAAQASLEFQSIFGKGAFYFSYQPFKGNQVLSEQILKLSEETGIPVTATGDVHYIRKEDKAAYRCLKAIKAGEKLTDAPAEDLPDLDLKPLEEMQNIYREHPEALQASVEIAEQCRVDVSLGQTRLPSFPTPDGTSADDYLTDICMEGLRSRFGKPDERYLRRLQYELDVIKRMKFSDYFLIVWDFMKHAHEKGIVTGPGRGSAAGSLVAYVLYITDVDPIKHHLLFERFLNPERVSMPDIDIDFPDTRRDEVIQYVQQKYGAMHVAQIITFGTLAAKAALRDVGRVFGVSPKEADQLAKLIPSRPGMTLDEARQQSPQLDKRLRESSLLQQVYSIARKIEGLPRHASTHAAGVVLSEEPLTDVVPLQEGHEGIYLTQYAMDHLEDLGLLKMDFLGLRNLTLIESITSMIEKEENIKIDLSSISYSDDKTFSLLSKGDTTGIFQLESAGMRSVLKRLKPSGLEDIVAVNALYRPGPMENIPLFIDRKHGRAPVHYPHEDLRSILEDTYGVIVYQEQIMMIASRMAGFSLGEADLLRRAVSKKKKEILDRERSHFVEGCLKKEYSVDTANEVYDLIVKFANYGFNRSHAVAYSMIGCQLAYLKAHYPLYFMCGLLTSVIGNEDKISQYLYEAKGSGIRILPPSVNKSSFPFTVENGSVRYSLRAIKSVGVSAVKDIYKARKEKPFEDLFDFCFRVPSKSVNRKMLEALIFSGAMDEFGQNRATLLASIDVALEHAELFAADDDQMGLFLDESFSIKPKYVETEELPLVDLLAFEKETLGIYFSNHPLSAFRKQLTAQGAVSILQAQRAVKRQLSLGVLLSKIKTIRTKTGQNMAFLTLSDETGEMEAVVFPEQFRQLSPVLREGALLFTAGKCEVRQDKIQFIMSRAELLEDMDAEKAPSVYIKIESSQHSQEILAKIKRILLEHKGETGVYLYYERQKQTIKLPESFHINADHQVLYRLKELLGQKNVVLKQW

Ki [1] [µM] | Ki [2] [µM] | Structure (SMILES) | Ki [3] [µM] | IC50 [4] [µM] | IC50 (DNA gyrase subunit A/B) [µM]
> 482 | > 482 | CCc1cc(Nc2cc(=O)n(CCCCN3CCN(c4c(F)cc5c(=O)c(C(=O)O)cn(C6CC6)c5c4F)CC3C)c(=O)[nH]2)ccc1C (stereo unspecified) | > 482 | – | –
– | – | CCc1cc(Nc2cc(=O)n(CCCCO)c(=O)[nH]2)ccc1C [HBEMAU] | > 1010 | > 500 | > 500
